Measurements taken from US12479805B2, “Indazole hydrazide compound and application thereof” (Beijing Baheal Chengchuang Pharmaceutical Research and …, priority 2021, dated 2025).
pKd: −log10 of the molar value. Read-outs that look alike come from different tables or passages of the source.

Key:
[1] = tested on: tumor cells LNCaP; assay: Anti-tumor activity assay (chemiluminescence CTG cell viability), LNCaP; type: cell-based; settings: for IC50: Homo sapiens, 72 h, CTG chemiluminescence
Procedure: (§1) The frozen tumor cells (prostate cancer, ovarian cancer, etc.) were taken out from liquid nitrogen, and quickly dissolved at 37° C. The cells were added to 5 ml of the corresponding medium containing FBS and centrifuged at 300 g for 5 minutes. The precipitate was collected, resuspended with the corresponding medium and then mixed well. After that, cells were added to a 24-well cell culture dish, supplemented with the medium to a total volume of 2 mL per well at 37° C. and cultured. After the confluence reached about 90%, subculturing or counting and plating was performed.
(§2) After the cultured tumor cells were sufficient to be passaged, they were digested with trypsin and a single cell suspension was prepared. After counting, cells were adjusted to a concentration of 1.2×10^4 cells/ml with the corresponding medium. 90 μl of the mixed solution was added to a 96-well plate and incubated at 37° C. for 30 minutes. Then the mixture was added with the corresponding medium and incubated in a cell incubator at 37° C. overnight. The morphology and confluence of tumor cells were observed.
(§3) After the tumor cells were cultured overnight, serial dilutions of the compounds were prepared and added to the culture system.
(§4) The stock solution of the indazole hydrazide compound (100 mM) dissolved in DMSO was fully dissolved at room temperature. If there was any insoluble matter, heating and ultrasonication were carried out for 5 minutes to observe until dissolution.
(§5) 20 μl DMSO was added to wells 2-9 of a 96-well V-shaped compound dilution plate, and 30 μl stock solution was added to well 1. The compound dilution plate was placed on a shaking mixer. 10 μl liquid was transferred from well 1 to well 2, mixed well by pipetting and shaking, then 10 μl of liquid was transferred from well 2 to well 3, mixed well by pipetting and shaking, and so on . . . and finally 10 μl of liquid was transferred from well 8 to well 9, mixed well by pipetting and shaking, and 1000× gradient dilution stock solution was prepared. [Note: As DMSO easily absorbs moisture in the air, after the operation, the compound dilution plate was immediately sealed with parafilm, stored at 4° C., and discarded after 1 week. When using it again, the parafilm was removed after the temperature reached room temperature to avoid inaccurate concentration caused by moisture absorption.]
(§6) In the ultra-clean workbench, a 96-well sterile cell culture plate was used. 198 μl of medium was added to wells 1-9, and 2 μl of the stock solution in wells 1-9 of the 1000× stock solution was transferred to the corresponding wells 1-9 of the 96-well sterile cell culture plate, mixed well by pipetting and shaking, and […] was prepared. This stock solution needed to be prepared and used on the same day.
(§7) 10 μl of the 10× stock solution prepared on the day was added to the cell culture medium.
(§8) It was incubated for 72 h at 37° C. under 5% carbon dioxide conditions.
(§9) Chemiluminescence method was used to measure ATP level of cells to evaluate cell viability. The specific operation was performed in accordance with the instructions. After the incubation, 50 μL of CTG solution was added. After mixing well, the lysis mixture was transferred to a microplate reader. After 5-10 minutes, the chemiluminescence data were gathered in the microplate reader. Excel software was used to analyze and process the data, and GraphPad Prism 7 software was used to calculate IC50 according to the fitted dose-effect curve generated by the chemiluminescence data.
(§10) In this test, Z factor was used as a quality control indicator. Z′ factor was defined by 4 parameters: the mean (μ) and standard deviation (σ) of the positive control (positive, p) and the negative control (negative, n).
(§11) The negative control group was the untreated group with the addition of solvent (DMSO); the positive control was 2.5 μM BEZ235 or 1 μM Staurosporine. […]

[2] = tested on: tumor cells 22RV1; assay: Anti-tumor activity assay (chemiluminescence CTG cell viability), 22RV1; type: cell-based; settings: 22RV1 cells; for Hillslope 22RV1: fitted dose-effect curve; for IC50: Homo sapiens, 72 h, CTG chemiluminescence
Procedure: as §1, §2, §3, §4, §5, §6, §7, §8, §9, §10, §11

[3] = tested on: HUVEC cells; assay: 2D angiogenesis experiment (HUVEC on Matrigel); type: cell-based, human; settings: VEGF, 4 h
Procedure: 3.1 Evaluation of Anti-Angiogenesis of Compounds by 2D Angiogenesis Experiment:
(1) In a 96-well plate, 50 ul of 100% Matrigel was added to each well and air bubbles should be avoided. The plate was then placed in a 37° C. incubator for 45 minutes.
(2) When the confluence of HUVEC cells in good growth state reached about 80%, the cells were digested, and resuspended in HUVEC complete medium. 40 uL of resuspension was added to each well in triplicate at a concentration of 4×10000 cells/well.
(3) 5 uL of compounds with three concentrations of high, medium and low was added to the test compound group. In the VEGF group, 5 uL of culture medium containing 200 ng/ml VEGF was added. In the solvent group, 10 uL culture medium was supplemented.
(4) Cells were incubated in a 37° C. 5% CO2 incubator for 4 h, and photos of each well were taken.

[4] = tested on: tumor cells and HUVEC cells spheroids; assay: 3D co-culture of tumor cells and HUVEC cells anti-angiogenesis experiment; type: cell-based, human; settings: 0.3 μM, 1.0 μM, day 2 and day 5, VEGF 20 ng/mL
Procedure: 3.2 Experiments of Evaluating Anti-Angiogenesis of Compounds by 3D Co-Culture of Tumor Cells and HUVEC Cells: • (1) 25,000 tumor cells and 25,000 HUVEC cells were mixed and plated in a low-adsorption 24-well plate. Cells were shaken horizontally in a 37° C. incubator and placed for 24 h to form a suspension of Spheroids. • (2) 40 uL of 10% Matrigel was added to each well, and placed at 37° C. for 45 min to crosslink and harden the gel. 40 uL of suspension with Spheroids was added to wells. • (3) After 24 h, 10 uL of compounds with three concentrations of high, medium and low was added to the test compound group. In the VEGF group, 10 uL of culture medium containing 200 ng/ml VEGF was added. In the solvent group, 20 uL culture medium was supplemented. • (4) Cells were incubated in a 37° C. 5% CO2 incubator for 0, 2, 5, and 7 days, and photos of each well were taken.
Bright-field photos were taken under the microscope, scale bar=100 μm. The imageview software measurement tool was used to count the length of the blood vessels generated by one organoid. The average of the total length of blood vessels was calculated. It was compared with the 20 ng/ml VEGF group. *p<0.05, **p<0.01. Error bars indicate ±SEM.
In the 3D […] experiment, the following conclusions can be drawn based on the bright field photos and the total length of blood vessels on 0, 2, 5, and 7 days after addition of drugs: […]

[5] = target: integrin protein αvβ3 (Homo sapiens, UniProt P05106+P06756); assay: Affinity test by surface plasmon resonance (Biacore 8K); type: binding
Sequence of integrin protein αvβ3 (P06756 31-1048): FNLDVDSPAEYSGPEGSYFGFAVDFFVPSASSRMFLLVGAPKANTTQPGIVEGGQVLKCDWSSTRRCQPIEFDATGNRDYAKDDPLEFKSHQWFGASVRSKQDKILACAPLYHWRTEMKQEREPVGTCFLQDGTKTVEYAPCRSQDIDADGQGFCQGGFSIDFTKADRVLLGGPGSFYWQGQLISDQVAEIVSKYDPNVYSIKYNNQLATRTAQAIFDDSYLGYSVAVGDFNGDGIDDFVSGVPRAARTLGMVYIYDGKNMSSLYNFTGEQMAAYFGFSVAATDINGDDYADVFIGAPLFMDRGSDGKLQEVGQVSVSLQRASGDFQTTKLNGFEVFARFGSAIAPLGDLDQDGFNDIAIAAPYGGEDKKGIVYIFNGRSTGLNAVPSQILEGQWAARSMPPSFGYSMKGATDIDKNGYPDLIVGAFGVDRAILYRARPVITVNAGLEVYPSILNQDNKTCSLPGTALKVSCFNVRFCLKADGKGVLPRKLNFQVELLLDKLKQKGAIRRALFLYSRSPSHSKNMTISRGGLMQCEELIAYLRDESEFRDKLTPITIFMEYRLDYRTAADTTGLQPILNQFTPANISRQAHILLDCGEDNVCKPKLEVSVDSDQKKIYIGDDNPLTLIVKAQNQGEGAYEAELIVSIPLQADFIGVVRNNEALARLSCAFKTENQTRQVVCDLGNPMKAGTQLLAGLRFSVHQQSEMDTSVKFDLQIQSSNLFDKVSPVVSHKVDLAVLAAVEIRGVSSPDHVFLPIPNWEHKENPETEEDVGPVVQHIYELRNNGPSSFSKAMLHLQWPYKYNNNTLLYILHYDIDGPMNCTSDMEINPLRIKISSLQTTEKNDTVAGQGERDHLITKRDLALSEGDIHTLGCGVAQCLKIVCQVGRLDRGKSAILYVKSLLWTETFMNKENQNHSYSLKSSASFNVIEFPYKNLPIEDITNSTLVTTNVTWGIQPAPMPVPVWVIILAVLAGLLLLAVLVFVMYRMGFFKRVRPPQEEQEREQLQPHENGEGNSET
Sequence of integrin protein αvβ3 (P05106 27-788): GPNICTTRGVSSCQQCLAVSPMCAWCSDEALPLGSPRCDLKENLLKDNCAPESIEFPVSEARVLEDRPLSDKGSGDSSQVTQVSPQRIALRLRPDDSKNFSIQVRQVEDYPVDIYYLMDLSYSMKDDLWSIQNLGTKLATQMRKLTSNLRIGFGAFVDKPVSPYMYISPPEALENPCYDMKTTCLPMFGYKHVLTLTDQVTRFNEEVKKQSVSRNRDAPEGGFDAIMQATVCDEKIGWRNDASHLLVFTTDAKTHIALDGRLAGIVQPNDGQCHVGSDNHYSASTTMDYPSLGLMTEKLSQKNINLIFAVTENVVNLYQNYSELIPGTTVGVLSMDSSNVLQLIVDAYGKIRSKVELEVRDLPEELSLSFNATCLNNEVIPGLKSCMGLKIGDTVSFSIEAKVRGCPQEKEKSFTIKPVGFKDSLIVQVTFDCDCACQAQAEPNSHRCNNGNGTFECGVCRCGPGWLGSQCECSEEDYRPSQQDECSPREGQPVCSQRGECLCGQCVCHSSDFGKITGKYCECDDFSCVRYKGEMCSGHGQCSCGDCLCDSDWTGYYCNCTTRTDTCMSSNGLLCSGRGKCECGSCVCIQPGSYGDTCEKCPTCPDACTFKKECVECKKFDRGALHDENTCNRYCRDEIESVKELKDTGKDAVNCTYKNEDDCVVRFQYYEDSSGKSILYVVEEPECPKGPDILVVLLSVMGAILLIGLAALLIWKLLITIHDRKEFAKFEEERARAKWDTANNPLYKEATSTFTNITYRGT
Procedure: The surface plasmon resonance instrument Biacore 8K was used to analyze the interaction between the compound and the integrin protein αvβ3. First, the system temperature was set to 25° C., and the flow rate to […]. PBS buffer was passed until the baseline was stable.
Without activating the surface of the chip, the integrin αvβ3 protein sample was dissolved in sodium acetate buffer with different pH values (pH=4, 4.5, 5) to make it carry different amounts of charge. Then the integrin protein sample flowed through the surface of the chip at a flow rate of 10 μL/min. Through the binding curve of integrin and the chip, a appropriate pH condition (pH=4.0) was determined. Finally, 50 mM NaOH eluate was injected to wash away the protein adsorbed on the chip surface.
CM5 chip was selected. The protein coupling was operated according to the amino coupling method, and the coupling steps are as follows: • (1) Activation: NHS/EDC mixture (0.1 M NHS and 0.4 M EDC, mixed at a volume ratio of 1:1 before use, and used immediately) was injected for 800 s at a flow rate of 10 μL/min, to activate the carboxyl of glucan on the surface of the chip; • (2) Immobilization: 20 ng/μL integrin αvβ3 protein solution was prepared with the buffer with the pH value determined in the pretreatment, and was injected for 800 s at a flow rate of 10 μL/min; • (3) Blocking: 1 M ethanolamine hydrochloride was used to block for 800 s to complete the immobilization process of the protein. 4.1.4 Binding Experiment
The compound to be tested was dissolved in PBS-P buffer (1.0×PBS, pH7.4, 0.15M Nacl, 0.05% tween-20), to prepare to a concentration of 50 μM. It was injected at a flow rate of 10 μL/min for a preliminary binding analysis.
The compound that was positive in the preliminary analysis was then prepared with buffers to a concentration gradient of 50 μM, 25 μM, 12.5 μM, 6.3 μM, 3.1 μM, 1.6 μM, 0.78 μM, 0.39 μM, 0.097 μM, 0.024 μM, and 0.0061 μM, and SB273005 was used as a positive control for a kinetic constant analysis.

[6] = tested on: prostate cancer PC-3 cells; assay: Anti-tumor activity assay (chemiluminescence), PC-3; type: cell-based; settings: FIG. 21-22
Procedure: as §1
as §2, with “observed. […]” for “observed.”
(§12) Chemiluminescence method was used to measure ATP level of cells to evaluate cell viability. […] After mixing well, the lysis mixture was transferred to a microplate reader. After 5-10 minutes, the chemiluminescence data were gathered in the microplate reader. […]

[7] = tested on: prostate cancer DU145 cells; assay: Anti-tumor activity assay (chemiluminescence), DU145; type: cell-based; settings: FIG. 21-22
Procedure: as §1
as §2, with “observed. […]” for “observed.”
as §12

[8] = tested on: melanoma cell WM115; assay: Anti-tumor activity assay (chemiluminescence), WM115; type: cell-based; settings: WM115 cells, FIG. 21-22
Procedure: as §1
as §2, with “observed. […]” for “observed.”
as §12

[9] = tested on: ovarian cancer cell OVCAR-4; assay: Anti-tumor activity assay (chemiluminescence), OVCAR-4; type: cell-based; settings: OVCAR-4 cells, FIG. 21-22
Procedure: as §1
as §2, with “observed. […]” for “observed.”
as §12

[10] = tested on: vascular endothelial cell HUVEC-T11; assay: Activity assay (chemiluminescence), HUVEC-T11; type: cell-based; settings: HUVEC-T11 cells, FIG. 21-22
[11] = tested on: microvascular endothelial cell HMEC-1; assay: Activity assay (chemiluminescence), HMEC-1; type: cell-based; settings: HMEC-1 cells, FIG. 21-22
[12] = tested on: drug-resistant 22RV1 cells; assay: Combination with enzalutamide on 22RV1 cells (chemiluminescence); type: cell-based; settings: in combination with enzalutamide, enzalutamide-resistant 22RV1 cells, FIG. 23
Procedure: as §9

[13] = SPR, immobilized integrin αvβ3, 25° C., read-out: KD affinity

Structure (SMILES) | IC50 [1] [µM] | IC50 [2] [µM] | pKd [5, 13] | Hillslope 22RV1 [2] | inhibition of microtubule formation [3] | further results
C/C(CCc1ccc(O)cc1)=N\NC(=O)c1n[nH]c2c1CCCC2 [19-1] | 28.8 |  |  |  |  | 
CC(C)C/C=C(/C=N/NC(=O)c1n[nH]c2c1CCCC2)c1ccccc1 [19-2] | 19.6 | 364 |  | −0.7631 |  | 
O=C(N/N=C/CCc1cccc(C(F)(F)F)c1)c1n[nH]c2c1CCCC2 [19-3] | 19.6 |  |  |  |  | 
O=C(N/N=C/c1c(O)cc(O)cc1O)c1n[nH]c2c1CCCC2 [19-5] | 36.7 | 49.6 | 5.67 | −2.689 |  | 
O=C(N/N=C/c1cccc(O)c1)c1n[nH]c2c1CCCC2 [Formula (5)] |  |  |  |  |  | anti-tumor activity (activity curve) ([2]; FIG. 21-22): obvious anti-tumor activity; anti-tumor activity (activity curve) ([1]; FIG. 21-22): obvious anti-tumor activity; anti-tumor activity (activity curve) [6]: obvious anti-tumor activity; anti-tumor activity (activity curve) [7]: obvious anti-tumor activity; tumor-inhibiting effect (activity curve) [8]: highest tumor-inhibiting effect; inhibitory effect (activity curve) [9]: inhibitory effect; inhibitory effect (activity curve) [10]: inhibitory effect; inhibitory effect (activity curve) [11]: inhibitory effect; effect of combination with enzalutamide [12]: synergistic effect; pKd ([5]; stated in summary text, read-out: KD value interacting with the protein αvβ3): 6.80

Further lines, with some results ahead:

IC50 [1] [µM] | IC50 [2] [µM] | pKd [5, 13] | Structure (SMILES) | Hillslope 22RV1 [2] | inhibition of microtubule formation [3] | further results
0.36 | 0.25 |  | Cc1ccc(/C=N/NC(=O)c2n[nH]c3c2CCCC3)cc1 [19-4] | −4.343 | significant inhibition | inhibition of angiogenesis (total length of blood vessels) compared with the VEGF group ([4]; 0.1 μM, FIG. 32): significantly inhibit angiogenesis
1.41 | 0.86 |  | Cc1ccc(/C=N/NC(=O)c2n[nH]c3c2CCCC3)cc1O [19-6] | −3.273 | significant inhibition | inhibition of angiogenesis (total length of blood vessels) compared with the VEGF group ([4]; 3.0 μM, FIG. 33-34): significantly inhibit angiogenesis
4.27 | 4.08 | 5.00 | COc1ccc(/C=N/NC(=O)c2n[nH]c3c2CCCC3)cc1OC [19-7] | −13.53 | did not show any obvious inhibition | 
3.76 | 3.49 |  | O=C(N/N=C/c1ccc([N+](=O)[O-])cc1)c1n[nH]c2c1CCCC2 [19-8] | −1.177 | did not show any obvious inhibition | 
1.09 | 0.47 | 6.11 | COc1ccc(/C=N/NC(=O)c2n[nH]c3c2CCCC3)cc1O [19-9] | −2.911 | significant inhibition | inhibition of angiogenesis (total length of blood vessels) compared with the VEGF group ([4]; 3.0 μM, FIG. 33-34): significantly inhibit angiogenesis
